According to patent US4818770A, “Prevention of a plant disease by specific inhibition of fungal polyamine biosynthesis” (priority 1986, dated 1989):

Test system: U. phaseoli
Experiment: Bean rust severity after DFMO and polyamines alone or combined
Format: in vivo, Uromyces phaseoli
Conditions: for Lesions per cm^2 / Lesions per leaf / Lesions per leaf, percent of control: postinoculation

Row | Structure (SMILES) | reduction of number of lesions (1 mM Put alone) | Lesions per cm^2 (polyamine alone 0.01 mM) | Lesions per leaf (polyamine alone 0.01 mM) | Lesions per leaf, percent of control (polyamine alone 0.01 mM) | Lesions per cm^2 (polyamine alone 0.1 mM) | Lesions per leaf (polyamine alone 0.1 mM) | Lesions per leaf, percent of control (polyamine alone 0.1 mM) | Lesions per cm^2 (polyamine alone 1.0 mM) | Lesions per leaf (polyamine alone 1.0 mM) | Lesions per leaf, percent of control (polyamine alone 1.0 mM)
1 | NCCCCN [Put, putrescine] | about one-third | 57 ± 2 per cm^2 | 4013 ± 264 per leaf | 98% of control | 54 ± 5 per cm^2 | 3189 ± 478 per leaf | 78% of control | 44 ± 9 per cm^2 | 2698 ± 260 per leaf | 66% of control
2 | NCCCCNCCCN [Spd, spermidine] |  | 56 ± 5 per cm^2 | 3209 ± 360 per leaf | 78% of control | 58 ± 6 per cm^2 | 3416 ± 457 per leaf | 83% of control | 50 ± 10 per cm^2 | 3926 ± 358 per leaf | 96% of control
